{"source": "patent US20230393122A1", "about": "(priority 2022, published 2023)", "assay_type_in_all_cases": "cell-based", "key": {"SARS-CoV-2 Delta variant [1]": {"tested_on": "SARS-CoV-2 Delta variant", "assay": "Viral load reduction assay in EPSC-derived eSTB cells (qRT-PCR of supernatant viral copies)", "settings": "for IC50: read-out: IC50 for Delta variant in eSTBs"}, "[2]": {"tested_on": "SARS-CoV-2 Omicron variant", "assay": "Viral load reduction assay in EPSC-derived eSTB cells (qRT-PCR of supernatant viral copies)", "settings": "for IC50: read-out: IC50 for Omicron variant in eSTBs"}, "SARS-CoV-2 Delta variant [3]": {"tested_on": "SARS-CoV-2 Delta variant", "assay": "Viral load reduction assay in naïve-eSTB cells", "settings": "compared with EPSC-eSTBs"}, "[4]": {"tested_on": "SARS-CoV-2 Omicron variant", "assay": "Viral load reduction assay in naïve-eSTB cells", "settings": "compared with EPSC-eSTBs"}, "[5]": {"settings": "Severe acute respiratory syndrome coronavirus 2, 48 h"}}, "note": "Where two headings read alike, the source gives them in different places."}
{"compound": "CCC(CC)COC(=O)[C@H](C)N[P@](=O)(OC[C@H]1O[C@@](C#N)(c2ccc3c(N)ncnn23)[C@H](O)[C@@H]1O)Oc1ccccc1", "note": "[remdesivir]", "values": [{"measurement": "IC50", "setting": "SARS-CoV-2 Delta variant [1]; [5]", "value": "0.0055 ± 0.0012", "unit": "µM"}, {"measurement": "IC50", "setting": "[2]; [5]", "value": "0.0041 ± 0.0015", "unit": "µM"}]}
{"compound": "CC(C)C[C@H](NC(=O)OCc1ccccc1)C(=O)N[C@@H](CC1CCNC1=O)C(O)S(=O)(=O)O", "note": "(some centres unmarked) [GC376]", "values": [{"measurement": "IC50", "setting": "SARS-CoV-2 Delta variant [1]", "value": "0.0255 ± 0.0032", "unit": "µM"}, {"measurement": "IC50", "setting": "[2]", "value": "0.0314 ± 0.0041", "unit": "µM"}]}
{"compound": "CC(C)C[C@H](NC(=O)OCc1ccccc1)C(=O)N[C@@H](C[C@@H]1CCNC1=O)C(O)S(=O)(=O)[O-].[Na+]", "note": "(some centres unmarked) [GC376]", "values": [{"measurement": "Viral copy in the supernatant, Delta (FIG. 17B)", "setting": "SARS-CoV-2 Delta variant [1]; EPSC-derived eSTB cells", "value": "dose-dependent inhibition"}, {"measurement": "Viral copy in the supernatant, Omicron (FIG. 17B)", "setting": "[2]; EPSC-derived eSTB cells", "value": "dose-dependent inhibition"}, {"measurement": "IC50 against Delta variant in naïve-eSTBs", "setting": "SARS-CoV-2 Delta variant [3]", "value": "similarly low"}, {"measurement": "IC50 against Omicron variant in naïve-eSTBs", "setting": "[4]", "value": "similarly low"}]}
